{
  "source": "patent US20240384350A1",
  "about": "“METHODS OF TREATING CANCER WITH KINASE INHIBITORS” (BOARD OF REGENTS, THE UNIVERSITY OF TEXAS SYSTEM, priority 2021, published 2024)",
  "assay_in_all_cases": "Ba/F3 drug screening, Cell Titer Glo, IC50 Mut/WT",
  "type_in_all_cases": "cell-based",
  "key": {"EGFR L858R T790M L718V": {"biological_target": "T1, EGFR L858R T790M L718V (Homo sapiens, UniProt P00533, L718V/L858R/T790M)", "T1 construct": "expressed in transfected cells; host or cells: Ba/F3", "conditions": "T790M-like-3R, 72 hours", "experimental": "(§1) Data represent the ratio of the IC50 value for a given TKI for cells with a T790M-like-3R EGFR mutation to the IC50 value for cells with wildtype EGFR.\n(§2) Ba/F3 cell generation, drug screening, and IC50 approximations. Ba/F3 cells were obtained as a gift from Dr. Gordon Mills (MD Anderson Cancer Center), and maintained in RPMI (Sigma) containing 10% FBS, 1% penicillin/streptomycin, and 10 ng/ml recombinant mIL-3 (R&D Biosystems). To establish stable Ba/F3 cell lines, Ba/F3 cells were transduced with retroviruses containing mutant EGFR plasmids for 12-24 hours.\n(§3) After 48-72 hours of transduction, 2 μg/ml puromycin (Invitrogen) was added to Ba/F3 cell lines in complete RPMI. To select for EGFR positive cell lines, cells were stained with PE-EGFR (Biolegend) and sorted by FACS. After sorting, EGFR positive cells were maintained in RPMI containing 10% FBS, 1% penicillin/streptomycin, and 1 ng/ml EGF to support cell viability. […] Shortly, cells were plated in 384-well plates (Greiner Bio-One) at 2000-3000 cells per well in technical triplicate. Seven different concentrations of TKIs or DMSO vehicle were added to reach a final volume of 40 μL per well. After 72 hours, 11 μL of Cell Titer Glo (Promega) was added to each well. Plates were incubated for a minimum of 10 minutes, and bioluminescence was determined using a FLUOstar OPTIMA plate reader (BMG LABTECH). Raw bioluminescence values were normalized to DMSO control treated cells, and values were plotted in GraphPad Prism. […] Drug screens were performed in technical triplicate on each plate and either duplicate or triplicate biological replicates. […] Statistical differences between groups were determined by ANOVA as described in the figure legends."}, "EGFR L747S": {"biological_target": "T2, EGFR L747S (Homo sapiens, UniProt P00533, L747S)", "T2 construct": "expressed in transfected cells; host or cells: Ba/F3", "conditions": "PACC; L747S; Ba/F3; 72 hours", "experimental": "(§4) Data represent the ratio of the IC50 value for a given TKI for cells with a PACC EGFR mutation to the IC50 value for cells with wildtype EGFR.\nas §2\n(§5) After 48-72 hours of transduction, 2 μg/ml puromycin (Invitrogen) was added to Ba/F3 cell lines in complete RPMI. To select for EGFR positive cell lines, cells were stained with PE-EGFR (Biolegend) and sorted by FACS. After sorting, EGFR positive cells were maintained in RPMI containing 10% FBS, 1% penicillin/streptomycin, and 1 ng/ml EGF to support cell viability. Drug screening was performed as previously described^41,42. Shortly, cells were plated in 384-well plates (Greiner Bio-One) at 2000-3000 cells per well in technical triplicate. Seven different concentrations of TKIs or DMSO vehicle were added to reach a final volume of 40 μL per well. After 72 hours, 11 μL of Cell Titer Glo (Promega) was added to each well. Plates were incubated for a minimum of 10 minutes, and bioluminescence was determined using a FLUOstar OPTIMA plate reader (BMG LABTECH). Raw bioluminescence values were normalized to DMSO control treated cells, and values were plotted in GraphPad Prism. […] Drug screens were performed in technical triplicate on each plate and either duplicate or triplicate biological replicates."}, "EGFR G719A": {"biological_target": "T3, EGFR G719A (Homo sapiens, UniProt P00533, G719A)", "T3 construct": "expressed in transfected cells; host or cells: Ba/F3", "conditions": "PACC; G719A; Ba/F3; 72 hours"}, "EGFR S768I/T790M": {"biological_target": "T4, EGFR S768I/T790M (Homo sapiens, UniProt P00533, S768I/T790M)", "T4 construct": "expressed in transfected cells; host or cells: Ba/F3", "conditions": "T790M-like-3S, 72 hours"}, "EGFR Ex19del L718Q": {"biological_target": "T5, EGFR Ex19del L718Q (Homo sapiens, UniProt P00533, DEL746-750/L718Q)", "T5 construct": "expressed in transfected cells; host or cells: Ba/F3", "conditions": "PACC; Ex19del L718Q; Ba/F3; 72 hours"}, "EGFR A767insASV": {"biological_target": "T6, EGFR A767insASV (Homo sapiens, UniProt P00533, DUP767-769)", "T6 construct": "expressed in transfected cells; host or cells: Ba/F3 cells, retroviral pBabe-Puro vector", "conditions": "Ex20, 72 hours", "experimental": "Data represent the ratio of the IC50 value for a given TKI for cells with an ex20ins EGFR mutation to the IC50 value for cells with wildtype EGFR.\nas §2\n(§6) After 48-72 hours of transduction, 2 μg/ml puromycin (Invitrogen) was added to Ba/F3 cell lines in complete RPMI. To select for EGFR positive cell lines, cells were stained with PE-EGFR (Biolegend) and sorted by FACS. After sorting, EGFR positive cells were maintained in RPMI containing 10% FBS, 1% penicillin/streptomycin, and 1 ng/ml EGF to support cell viability. Drug screening was performed as previously described^41,42. Shortly, cells were plated in 384-well plates (Greiner Bio-One) at 2000-3000 cells per well in technical triplicate. Seven different concentrations of TKIs or DMSO vehicle were added to reach a final volume of 40 μL per well. After 72 hours, 11 μL of Cell Titer Glo (Promega) was added to each well. Plates were incubated for a minimum of 10 minutes, and bioluminescence was determined using a FLUOstar OPTIMA plate reader (BMG LABTECH). Raw bioluminescence values were normalized to DMSO control treated cells, and values were plotted in GraphPad Prism. […] Drug screens were performed in technical triplicate on each plate and either duplicate or triplicate biological replicates. […] Statistical differences between groups were determined by ANOVA as described in the figure legends."}, "EGFR G719A T790M": {"biological_target": "T7, EGFR G719A T790M (Homo sapiens, UniProt P00533, G719A/T790M)", "T7 construct": "expressed in transfected cells; host or cells: Ba/F3", "conditions": "T790M-like-3S, 72 hours"}, "EGFR Ex19del T854I": {"biological_target": "T8, EGFR Ex19del T854I (Homo sapiens, UniProt P00533, DEL746-750/T854I)", "T8 construct": "expressed in transfected cells; host or cells: Ba/F3 (retroviral transduction, pBabe-Puro based vectors)", "conditions": "PACC; Ex19del T854I; Ba/F3; 72 hours"}, "EGFR E709K G719S": {"biological_target": "T9, EGFR E709K G719S (Homo sapiens, UniProt P00533, E709K/G719S)", "T9 construct": "expressed in transfected cells; host or cells: Ba/F3", "conditions": "PACC; E709K G719S; Ba/F3; 72 hours"}, "EGFR R776C": {"biological_target": "T10, EGFR R776C (Homo sapiens, UniProt P00533, R776C)", "T10 construct": "host or cells: Ba/F3", "conditions": "PACC; R776C; Ba/F3; 72 hours"}, "EGFR Ex19del G796S": {"biological_target": "T11, EGFR Ex19del G796S (Homo sapiens, UniProt P00533, DEL746-750/G796S)", "T11 construct": "expressed in transfected cells; host or cells: Ba/F3", "conditions": "PACC; Ex19del G796S; Ba/F3; 72 hours", "experimental": "as §4, §2, §5"}, "EGFR L858R G724S": {"biological_target": "T12, EGFR L858R G724S (Homo sapiens, UniProt P00533, G724S/L858R)", "T12 construct": "expressed in transfected cells; host or cells: Ba/F3 (retroviral transduction, pBabe-Puro based vectors)", "conditions": "PACC; L858R G724S; Ba/F3; 72 hours", "experimental": "as §4, §2, §5"}, "EGFR Ex19del L718V": {"biological_target": "T13, EGFR Ex19del L718V (Homo sapiens, UniProt P00533, DEL746-750/L718V)", "T13 construct": "expressed in transfected cells; host or cells: Ba/F3", "conditions": "PACC; Ex19del L718V; Ba/F3; 72 hours", "experimental": "as §4, §2, §5"}, "EGFR Ex19del T790M C797S": {"biological_target": "T14, EGFR Ex19del T790M C797S (Homo sapiens, UniProt P00533, C797S/DEL746-750/T790M)", "T14 construct": "expressed in transfected cells; host or cells: Ba/F3", "conditions": "T790M-like-3R, 72 hours"}, "EGFR I740dupIPVAK": {"tested_on": "EGFR I740dupIPVAK", "conditions": "PACC; I740dupIPVAK; Ba/F3; 72 hours"}, "EGFR S768I": {"biological_target": "T15, EGFR S768I (Homo sapiens, UniProt P00533, S768I)", "T15 construct": "expressed in transfected cells; host or cells: Ba/F3", "conditions": "PACC; S768I; Ba/F3; 72 hours", "experimental": "as §4, §2, §6"}, "EGFR V774M": {"biological_target": "T16, EGFR V774M (Homo sapiens, UniProt P00533, V774M)", "T16 construct": "host or cells: Ba/F3", "conditions": "PACC; V774M; Ba/F3; 72 hours", "experimental": "as §4, §2, §5"}, "EGFR L858R/L792H": {"biological_target": "T17, EGFR L858R/L792H (Homo sapiens, UniProt P00533, L792H/L858R)", "T17 construct": "expressed in transfected cells; host or cells: Ba/F3", "conditions": "PACC; L858R/L792H; Ba/F3; 72 hours"}, "EGFR G724S": {"biological_target": "T18, EGFR G724S (Homo sapiens, UniProt P00533, G724S)", "T18 construct": "expressed in transfected cells; host or cells: Ba/F3", "conditions": "PACC; G724S; Ba/F3; 72 hours"}, "EGFR L858R": {"biological_target": "T19, EGFR L858R (Homo sapiens, UniProt P00533, L858R)", "T19 construct": "expressed in transfected cells; host or cells: Ba/F3 cells, retroviral pBabe-Puro vector", "conditions": "Classical-Like, 72 hours"}, "EGFR K754E": {"biological_target": "T20, EGFR K754E (Homo sapiens, UniProt P00533, K754E)", "T20 construct": "expressed in transfected cells; host or cells: Ba/F3 cells, retroviral pBabe-Puro vector", "conditions": "Classical-Like, 72 hours"}, "EGFR Ex19del/C797S": {"biological_target": "T21, EGFR Ex19del/C797S (Homo sapiens, UniProt P00533, C797S/DEL746-750)", "T21 construct": "expressed in transfected cells; host or cells: Ba/F3", "conditions": "PACC; Ex19del/C797S; Ba/F3; 72 hours", "experimental": "as §4, §2, §5"}, "EGFR Ex19del G724S": {"biological_target": "T22, EGFR Ex19del G724S (Homo sapiens, UniProt P00533, DEL746-750/G724S)", "T22 construct": "expressed in transfected cells; host or cells: Ba/F3", "conditions": "PACC; Ex19del G724S; Ba/F3; 72 hours"}, "EGFR V769L": {"biological_target": "T23, EGFR V769L (Homo sapiens, UniProt P00533, V769L)", "T23 construct": "expressed in transfected cells; host or cells: Ba/F3", "conditions": "PACC; V769L; Ba/F3; 72 hours", "experimental": "as §4, §2, §5"}, "EGFR E709_T710del insD": {"biological_target": "T24, EGFR E709_T710del insD (Homo sapiens, UniProt P00533, DEL709-709/T710D)", "T24 construct": "expressed in transfected cells; host or cells: Ba/F3", "conditions": "PACC; E709_T710del insD; Ba/F3; 72 hours"}, "EGFR G724S T790M": {"biological_target": "T25, EGFR G724S T790M (Homo sapiens, UniProt P00533, G724S/T790M)", "T25 construct": "expressed in transfected cells; host or cells: Ba/F3", "conditions": "T790M-like-3R, 72 hours", "experimental": "as §1, §2, §3"}},
  "data": [
    {"compound": "COc1cc2ncnc(Nc3cccc(Cl)c3F)c2cc1OC(=O)N1CCN(C)C[C@H]1C", "note": "[AZD3759]", "values": [
      {"measurement": "ratio of IC50 for cells with mutant EGFR to IC50 for cells with wildtype EGFR (Mut/WT)", "setting": "EGFR L858R T790M L718V", "result": 4.812},
      {"measurement": "ratio of IC50 for cells with mutant EGFR to IC50 for cells with wildtype EGFR (Mut/WT)", "setting": "EGFR L747S", "result": 0.08122},
      {"measurement": "ratio of IC50 for cells with mutant EGFR to IC50 for cells with wildtype EGFR (Mut/WT)", "setting": "EGFR G719A", "result": 0.1002},
      {"measurement": "ratio of IC50 for cells with mutant EGFR to IC50 for cells with wildtype EGFR (Mut/WT)", "setting": "EGFR S768I/T790M", "result": 7.218},
      {"measurement": "ratio of IC50 for cells with mutant EGFR to IC50 for cells with wildtype EGFR (Mut/WT)", "setting": "EGFR Ex19del L718Q", "result": 4.812},
      {"measurement": "ratio of IC50 for cells with mutant EGFR to IC50 for cells with wildtype EGFR (Mut/WT)", "setting": "EGFR A767insASV", "result": 4.154},
      {"measurement": "ratio of IC50 for cells with mutant EGFR to IC50 for cells with wildtype EGFR (Mut/WT)", "setting": "EGFR G719A T790M", "result": 9.625},
      {"measurement": "ratio of IC50 for cells with mutant EGFR to IC50 for cells with wildtype EGFR (Mut/WT)", "setting": "EGFR Ex19del T854I", "result": 1.509},
      {"measurement": "ratio of IC50 for cells with mutant EGFR to IC50 for cells with wildtype EGFR (Mut/WT)", "setting": "EGFR E709K G719S", "result": 0.3636},
      {"measurement": "ratio of IC50 for cells with mutant EGFR to IC50 for cells with wildtype EGFR (Mut/WT)", "setting": "EGFR R776C", "result": 0.1522},
      {"measurement": "ratio of IC50 for cells with mutant EGFR to IC50 for cells with wildtype EGFR (Mut/WT)", "setting": "EGFR Ex19del G796S", "result": 4.084},
      {"measurement": "ratio of IC50 for cells with mutant EGFR to IC50 for cells with wildtype EGFR (Mut/WT)", "setting": "EGFR L858R G724S", "result": 0.0005419},
      {"measurement": "ratio of IC50 for cells with mutant EGFR to IC50 for cells with wildtype EGFR (Mut/WT)", "setting": "EGFR Ex19del L718V", "result": 0.04127},
      {"measurement": "ratio of IC50 for cells with mutant EGFR to IC50 for cells with wildtype EGFR (Mut/WT)", "setting": "EGFR Ex19del T790M C797S", "result": 9.625},
      {"measurement": "ratio of IC50 for cells with mutant EGFR to IC50 for cells with wildtype EGFR (Mut/WT)", "setting": "EGFR I740dupIPVAK", "result": 0.08984},
      {"measurement": "ratio of IC50 for cells with mutant EGFR to IC50 for cells with wildtype EGFR (Mut/WT)", "setting": "EGFR S768I", "result": 0.145},
      {"measurement": "ratio of IC50 for cells with mutant EGFR to IC50 for cells with wildtype EGFR (Mut/WT)", "setting": "EGFR V774M", "result": 0.3139},
      {"measurement": "ratio of IC50 for cells with mutant EGFR to IC50 for cells with wildtype EGFR (Mut/WT)", "setting": "EGFR L858R/L792H", "result": 0.03125},
      {"measurement": "ratio of IC50 for cells with mutant EGFR to IC50 for cells with wildtype EGFR (Mut/WT)", "setting": "EGFR G724S", "result": 0.01105},
      {"measurement": "ratio of IC50 for cells with mutant EGFR to IC50 for cells with wildtype EGFR (Mut/WT)", "setting": "EGFR L858R", "result": 0.00585},
      {"measurement": "ratio of IC50 for cells with mutant EGFR to IC50 for cells with wildtype EGFR (Mut/WT)", "setting": "EGFR K754E", "result": 0.04651},
      {"measurement": "ratio of IC50 for cells with mutant EGFR to IC50 for cells with wildtype EGFR (Mut/WT)", "setting": "EGFR Ex19del/C797S", "result": 0.0001375},
      {"measurement": "ratio of IC50 for cells with mutant EGFR to IC50 for cells with wildtype EGFR (Mut/WT)", "setting": "EGFR Ex19del G724S", "result": 4.812},
      {"measurement": "ratio of IC50 for cells with mutant EGFR to IC50 for cells with wildtype EGFR (Mut/WT)", "setting": "EGFR V769L", "result": 0.9765},
      {"measurement": "ratio of IC50 for cells with mutant EGFR to IC50 for cells with wildtype EGFR (Mut/WT)", "setting": "EGFR E709_T710del insD", "result": 0.2123},
      {"measurement": "ratio of IC50 for cells with mutant EGFR to IC50 for cells with wildtype EGFR (Mut/WT)", "setting": "EGFR G724S T790M", "result": 7.7}
    ]}
  ]
}
